Holding throughout (format): in vivo
One experiment deals with Alfalfa (Variety Ladak). Kind of experiment: Greenhouse seedling emergence, alfalfa. Conditions: 1 mM seed treatment, 3 days after planting, control 58%. As for the experimental part:
The desired treatment concentration of ketosuccinamate was added to an aqueous solution of 0.01% Tween 80 and the pH was set to neutral with KOH. The seeds were dipped in the solution to wet them and allowed to air dry before planting, a process that required less than 15 min. Seeds were planted in vermiculite, sand, peat moss (1:1:2) in the greenhouse and the seedling emergence was tracked. The temperature in the house ranged from 72-82° F. Sinorhizobium meliloti inoculum (commercial innoculum) was mixed into the substrate before planting. 3 days after planting, the following seedling emergence was observed. Control 58%; Ketosuccinamate (1 mM) treated 79%.

The test system of experiment [1] is Soybeans (Variety Viking). Kind of experiment: Greenhouse seedling emergence, soybean. Conditions: 1 mM seed treatment, 3 days after planting, controls 12 of 20. How it is done:
The desired treatment concentration of ketosuccinamate was added to an aqueous solution of 0.01% Tween 80 and the pH was set to neutral with KOH. The seeds were dipped in the solution to wet them and allowed to air dry before planting, a process that required less than 15 min. Seeds were planted in vermiculite, sand, peat moss (1:1:1) in the greenhouse and the seedling emergence was tracked. The moisture in the germination/growth substrate as maintained between 15-20% of saturation. The temperature in the house ranged from 72-82° F. Bradyrhizobium japonicum (commercial innoculum) was mixed into the substrate before planting. 3 days after planting the following seedling emergence was observed. Controls 12 of 20 had emerged from the soil. Ketosuccinamate (1 mM) treated 16 of 20 had emerged.

In experiment [2] the test system is Soybean (variety Viking) seeds. Briefly: Germination of treated soybean seeds on moist paper toweling. Conditions: 10 mM seed treatment, 75-85° F. How it is done:
The desired treatment concentration of ketosuccinamate was added to an aqueous solution of 0.01% Tween 80 and the pH was set to neutral with KOH. The seeds were dipped in the solution to wet them and allowed to air dry before planting, a process that required less than 15 min. Soybean (variety Viking) 22 hr after treatment and initiation of germination on moist paper toweling at 75-85° F. the following germination was observed. 2 of the 20 controls had broken through the pericarp whereas 9 of the 20 ketosuccinamate (10 mM) treated seeds had broken through the pericarp. 24 hours after treatment 6 of the 20 controls had broken the pericarp and 12 of the 20 ketosuccinamate-treated seeds had broken the pericarp.

Experiment [3] relates to Alfalfa (variety Ladak) seeds. Briefly: Germination of treated alfalfa seeds on moist paper toweling. Conditions: 3 days after initiation of germination, 65-75° F., control untreated 80%. How it is done: The desired treatment concentration of ketosuccinamate was added to an aqueous solution of 0.01% Tween 80 and the pH was set to neutral with KOH. The seeds were dipped in the solution to wet them and allowed to air dry before planting, a process that required less than 15 min. Alfalfa (variety Ladak) 3 days after initiation of germination on moist paper toweling at 65-75° F. the following percent germination was observed. Control untreated seeds: 80%, seeds treated with 0.1 mM ketosuccinamate: 88% and seeds treated with 1 mM ketosuccinamate: 93%. At least 30 seeds were used in each set.

The structures appear in SMILES notation.

`NC(=O)CC(=O)C(=O)O` [ketosuccinamate, 4-amino-2,4-dioxobutanoic acid] yielded a seedling emergence in the experiment on Alfalfa (Variety Ladak) of 79%. The “seedling emergence, number of 20 that had emerged from the soil” value in experiment [1] is 16. For the same compound, in experiment [2] (22 hr after treatment, controls 2 of the 20), the “number of the 20 treated seeds that had broken through the pericarp” value is 9. The “number of the 20 treated seeds that had broken the pericarp” value in experiment [2] (24 hours after treatment, controls 6 of the 20) came to 12. Further, the percent germination was found to be 88% in experiment [3] (seeds treated with 0.1 mM) and 93% in experiment [3] (seeds treated with 1 mM).

(Values after patent publication US10117431B2, “Compounds and methods for improving plant performance” (Los Alamos National Security, LLC, priority 2013, dated 2018).)
